In series [1] the target is amyloid β peptide aggregates (1-40) (Homo sapiens (Human), UniProt P05067). It is filed as binding. The conditions noted are these: pH 7.4; for IC50: aggregates 1 μM, thioflavin-T 3 μM, compound 0.02 to 20 μM, 30 minutes at 23° C., read-out: Amyloid binding property (IC50). The procedure:
The binding capacity of the compounds to an amyloid β peptide aggregate was quantitatively measured by a thioflavin-T fluorescence inhibition test. […] The resultant solution was cause to react for 30 minutes at 23° C. with the light shielded. Then, the fluorescence of thioflavin-T was measured under a condition of Ex=440 nm, Em=490 nm, Cutoff filter=475 nm. The IC50 values were calculated by using an analysis software, GraphPad PRISM Ver.5 (GraphPad Software, Inc.).

Broadly, the melting point is the temperature, or range, at which the solid turns liquid. As usually defined, the IC50 is the concentration that gives 50% inhibition.

amyloid β peptide aggregates (1-40), sequence (P05067 672-711): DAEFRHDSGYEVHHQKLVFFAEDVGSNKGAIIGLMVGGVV

The compound `CC(C)OC(=O)CCC(C(=O)/C=C/c1ccc(O)c(OC(F)(F)F)c1)C(=O)/C=C/c1ccc(O)c(OC(F)(F)F)c1` [Compound 10] had a melting point of 191 °C.
Compound `COc1cc(/C=C/C(=O)CC(=O)/C=C/c2ccc(O)c(C(F)(F)F)c2)ccc1O` [Compound 27] returned a melting point of 200 °C. For the same compound, the IC50 in series [1] stood at 130 nM.
Taken in the same sequence, the figures for `COC(=O)CCC(C(=O)/C=C/c1ccc(O)c(OC(F)(F)F)c1)C(=O)/C=C/c1ccco1` (stereo not drawn) [Compound 30] were 141 °C and 650 nM.
Consider `COC(=O)CCC(C(=O)/C=C/c1ccc(O)c(C(F)(F)F)c1)C(=O)/C=C/c1ccc(O)c(C(F)(F)F)c1` [Compound 14], for which the melting point was found to be 183 °C. In addition, the IC50 in series [1] was 360 nM.
The like results for `CCOC(=O)CCC(C(=O)/C=C/c1ccc(O)c(OC(F)(F)F)c1)C(=O)/C=C/c1ccc(O)c(OC(F)(F)F)c1` [Compound 8] were, in that order, 155 to 156 °C and 380 nM.
The like results for `COC(=O)CC(C(=O)/C=C/c1ccc(O)c(OC(F)(F)F)c1)C(=O)/C=C/c1ccc(O)c(OC(F)(F)F)c1` [Compound 5] were, in that order, 140 to 141 °C and 520 nM.
Taken in the same sequence, the figures for `COC(=O)CCCC(C(=O)/C=C/c1ccc(O)c(OC(F)(F)F)c1)C(=O)/C=C/c1ccc(O)c(OC(F)(F)F)c1` [Compound 6] were 147 to 148 °C and 310 nM.
Regarding `COc1ccc(/C=C/C(=O)C(CCC(=O)[O-])C(=O)/C=C/c2ccc(OC)c(F)c2)cc1F.[Na+]` [Compound 12], the melting point was more than 200 °C.
As for `COc1cc(/C=C/C(=O)CC(=O)/C=C/c2ccc(OCC(=O)O)c(OC)c2)ccc1O` [Compound 26], the melting point was 190 to 192 °C (dec.). Moreover, the IC50 in series [1] worked out at 310 nM.
`COC(=O)CCC(C(=O)/C=C/c1ccc(OC)c(F)c1)C(=O)/C=C/c1ccc(OC)c(F)c1` [Compound 3] yielded a melting point of 170 to 171 °C.
In the case of `CNc1ccc(/C=C/C(=O)CC(=O)/C=C/c2ccc(NC)c(C(F)(F)F)c2)cc1C(F)(F)F` [Compound 28], the melting point is 192 to 194 °C. In series [1], the IC50 is 5800 nM and the “solubility remark in amyloid binding test” value is “hardly soluble”.
`COC(=O)CCC(C(=O)C=Cc1ccc(OC(C)=O)c(OC(F)(F)F)c1)C(=O)C=Cc1ccc(OC(C)=O)c(OC(F)(F)F)c1` (stereo not drawn) [Compound 17, 1,7-bis(4′-acetoxy-3′-trifluoromethoxyphenyl)-4-methoxycarbonylethyl-1,6-heptadiene-3,5-dione] yielded a melting point of 149 to 150 °C.
Still for that read-out and setting: then `CC(=O)OCCCC(C(=O)/C=C/c1ccc(O)c(OC(F)(F)F)c1)C(=O)/C=C/c1ccc(O)c(OC(F)(F)F)c1` [Compound 13, 1,7-bis(4′-hydroxy-3′-trifluoromethoxyphenyl)-4-acetoxypropyl-1,6-heptadiene-3,5-dione], with 130 to 131 °C.
On the same count and under the same terms, then `COC(=O)CCC(C(=O)/C=C/c1ccc(O)c(OC(F)(F)F)c1)C(=O)/C=C/c1ccc(OC(C)=O)c(OC(F)(F)F)c1` (stereo not drawn) [Compound 18], with 124 to 126 °C.
As for `O=C(O)CCC(C(=O)/C=C/c1ccc(O)c(OC(F)(F)F)c1)C(=O)/C=C/c1ccc(O)c(OC(F)(F)F)c1` [Compound 2, 1,7-bis(4′-hydroxy-3′-trifluoromethoxyphenyl)-4-carboxylethyl-1,6-heptadiene-3,5-dione], in series [1], the IC50 was 1300 nM.
Consider `COc1ccc(/C=C/C(=O)C(CCC(=O)O)C(=O)/C=C/c2ccc(OC)c(F)c2)cc1F` [Compound 4], for which the melting point is 171 to 172 °C.
For `COCOCCCC(C(=O)/C=C/c1ccc(O)c(OC(F)(F)F)c1)C(=O)/C=C/c1ccc(O)c(OC(F)(F)F)c1` [Compound 20], in series [1], the IC50 worked out at 500 nM.
Consider `COC(=O)CCC(C(=O)/C=C/c1cc(F)c(O)c(F)c1)C(=O)/C=C/c1cc(F)c(O)c(F)c1` [Compound 11], for which the melting point lay within 178 to 179 °C.
